Values joined by “and” are separate entries in the source; they are usually repeats but may differ in a detail not shown here. Equal entries are not always repeated.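 The compound was tested at five concentrations on cells cultured in 96-well plates, with a 48-hour exposure period. The concentration for 50% growth inhibition is given as GI50. The concentration for full growth arrest is given as TGI.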
Columns and labels:
Test in all cases: growth of human tumour cells (NCI), 48 h
NCI-H226 lung = tested on: NCI-H226 lung
EKVX NSCLC = tested on: EKVX NSCLC
UACC-62 melanoma = tested on: UACC-62 melanoma
OVCAR-3 ovarian = tested on: OVCAR-3 ovarian
HOP-92 NSCLC = tested on: HOP-92 NSCLC
CCRF-CEM leukemia = tested on: CCRF-CEM leukemia
HCT-15 colon = tested on: HCT-15 colon
HCT-116 colon = tested on: HCT-116 colon
NCI-H460 lung = tested on: NCI-H460 lung
HL-60(TB) leukemia = tested on: HL-60(TB) leukemia

Compound | GI50 (NCI-H226 lung) | TGI (NCI-H226 lung) | TGI (EKVX NSCLC) | TGI (UACC-62 melanoma) | TGI (OVCAR-3 ovarian) | TGI (HOP-92 NSCLC) | TGI (CCRF-CEM leukemia) | TGI (HCT-15 colon) | TGI (HCT-116 colon) | GI50 (NCI-H460 lung) | TGI (NCI-H460 lung) | TGI (HL-60(TB) leukemia) [µM] | GI50 (UACC-62 melanoma) [µM] | GI50 (HOP-92 NSCLC) [µM] | GI50 (CCRF-CEM leukemia) | GI50 (HL-60(TB) leukemia) [µM] | GI50 (HCT-15 colon) [µM]
COc1cc(C2c3cc4c(cc3[C@@H](NCCN3CCOCC3)C3COC(=O)[C@H]23)OCO4)cc(OC)c1O (stereo not given in full) | 0.155 µM and 0.385 µM | 1.29 µM and 1.64 µM | 54.4 µM and > 17.5 µM | 4.99 µM and 6.06 µM | 21.5 µM and 14.3 µM | 4.73 µM and 10.4 µM | > 75 µM | 15.7 µM and 14.2 µM | 15.8 µM and > 17.5 µM | 0.051 µM and 0.174 µM | 1.26 µM and 2.4 µM |  |  |  |  |  | 
O=C(CC(Cl)=C(Cl)Cl)c1ccccc1 |  | 72.5 µM |  | > 100 µM | 81.4 µM | > 100 µM | 30.4 µM | 70.6 µM | 45.2 µM |  | > 100 µM | > 100 |  |  |  |  | 
Cn1cc(-c2csc(-c3cn(C)c4ccccc34)n2)c2ccccc21 |  | > 100 µM |  | > 100 µM | 64 µM | 94.5 µM | > 100 µM | > 100 µM | > 100 µM |  | > 100 µM | > 100 |  |  |  |  | 
Nc1nc(-c2ccco2)cc(-c2ccc(CO)o2)n1 |  | > 100 µM | > 100 µM | > 100 µM | > 100 µM |  | > 100 µM | > 100 µM | > 100 µM |  | > 100 µM | > 100 |  |  |  |  | 
COc1ccc2nc3cccc([N+](=O)[O-])c3c(NCCCO)c2c1 | 0.0181 µM and 0.0138 µM | 0.0803 µM and 0.0618 µM |  | 0.0151 µM and 0.0185 µM |  | 0.0565 µM | 0.0572 µM and 0.133 µM |  | 1.01 µM |  | 0.00233 µM and 0.0153 µM |  | 0.00294 | 0.0154 | 0.00583 µM and 0.0153 µM | 0.00233 | 
CC(=O)OC(Cc1c(O)c2c(C)cccc2oc1=O)C(C)(C)O (stereo not given) |  | > 100 µM | > 100 µM | > 100 µM | > 100 µM |  | > 100 µM | > 100 µM | > 100 µM |  | > 100 µM | > 100 |  |  |  |  | 
CC(=O)Oc1ccc2c3c1O[C@H]1[C@H](O)CC[C@@]4(O)[C@@H](C2)N(C)CC[C@]314 |  | > 100 µM | > 100 µM | > 100 µM | > 100 µM | > 100 µM |  | > 100 µM | > 100 µM |  |  | > 100 |  |  |  |  | 
N#Cc1c(O)c(/C=N/c2ncccn2)c(=O)n2c1[nH]c1ccccc12 |  | > 100 µM | > 100 µM |  | > 100 µM | > 100 µM | > 100 µM | > 100 µM | > 100 µM |  | > 100 µM | > 100 |  |  |  |  | 
O=C1c2ccccc2N2Oc3ccccc3C12c1ccccc1 (stereo not given) |  | > 100 µM | > 100 µM | > 100 µM |  | > 100 µM | > 100 µM | > 100 µM | > 100 µM |  |  | > 100 |  |  |  |  | 
O=C(NNC(=O)c1csc(NC(=S)NC2CCCCC2)n1)c1ccccc1 |  | 49.5 µM | 28.4 µM | 23.9 µM | 16.4 µM |  | 68.6 µM | 13 µM | 15.9 µM |  |  |  |  |  |  |  | 
C#CC1(O)CCCCCCCCC2(CCCCCCCC1)OCCO2 |  | 34 µM | 32.6 µM | 28.6 µM | 29.3 µM | 33.3 µM |  | 39.1 µM | 30.4 µM |  | 44.2 µM | 40.9 |  |  |  |  | 
CCOC1CC(C)N(C(=O)c2ccccc2)O1 (stereo not given) |  | > 100 µM | > 100 µM | > 100 µM | > 100 µM | > 100 µM | > 100 µM |  | > 100 µM |  | > 100 µM | > 100 |  |  |  |  | 
COc1ccc(-c2c(C#N)c(S)n(NS(=O)(=O)c3ccccc3)c(=O)c2C#N)cc1 |  | > 100 µM |  | > 100 µM | > 100 µM |  | > 100 µM | > 100 µM | > 100 µM |  | > 100 µM | > 100 |  |  |  |  | 
COc1cc(OC)c2[nH]c3c(O)c(-c4c(C)cc5c([nH]c6c(OC)cc(OC)cc65)c4O)c(C)cc3c2c1 |  | 17.6 µM | 12.7 µM |  | 18.6 µM | 15.6 µM |  | 16.9 µM | 15.7 µM |  | 16.6 µM | 10.5 |  |  |  | 2.82 | 8.28
CCOC(=O)/C=C(/C)Nc1nc2c(c(C(=O)OC)c1C#N)CCCC2 |  | > 100 µM | > 100 µM | > 100 µM |  | > 100 µM | > 100 µM | > 100 µM | > 100 µM |  | > 100 µM | > 100 |  |  |  |  | 
CC(=O)OC(C)(C)CCC(=O)[C@](C)(O)[C@H]1[C@H](O)C[C@@]2(C)[C@@H]3CCc4c(cc(OC5OC(CO)C(O)C(O)C5O)c(O)c4C)C3(C)C(=O)C[C@]12C (stereo not given in full) |  | > 100 µM | > 100 µM | > 100 µM | > 100 µM | > 100 µM | > 100 µM | > 100 µM | > 100 µM |  | > 100 µM |  |  |  |  |  | 
CC1(C)[C@@H]2C[C@H]1c1cnc(-c3ccccn3)cc1C2CCCCC[C@@H]1c2cc(-c3ccccn3)ncc2[C@@H]2C[C@H]1C2(C)C (stereo not given in full) |  | 7.53 µM | > 100 µM | > 34 µM | > 100 µM |  | 6.28 µM | > 100 µM | 31.3 µM |  | 24.9 µM | 5.76 |  |  |  |  | 
COc1ccccc1C1c2cc3c(cc2OC(N2CCOCC2)C1C)OCO3 (stereo not given) |  |  | 89.6 µM | 35.5 µM | 29.5 µM |  | 34.7 µM | 41.5 µM | 26.2 µM |  | 40.7 µM |  |  |  |  |  | 
CC1(C)N=C(C2CCCN2C(=O)OCc2ccccc2)OC1=O (stereo not given) |  | > 100 µM |  | > 100 µM | > 100 µM |  | > 100 µM | > 100 µM | > 100 µM |  | > 100 µM | > 100 |  |  |  |  | 
COC(=O)CCC(NC(=O)OC(C)(C)C)C(=O)NC(Cc1ccc(NC(=O)CCCC(C)=O)cc1)C(=O)NC(CCC(=O)OC)C(=O)OC (stereo not given) |  | > 100 µM | > 100 µM | > 100 µM | > 100 µM | > 100 µM | > 100 µM | > 100 µM | > 100 µM |  | > 100 µM |  |  |  |  |  | 
O=C(Nc1ccc(Cl)cc1)c1cc(S(=O)(=O)Nc2nnc3c(Cl)cc(C(F)(F)F)cn23)c(S)cc1Cl |  | > 100 µM | > 100 µM |  | > 100 µM | > 100 µM | > 100 µM | > 100 µM | > 100 µM |  | > 100 µM | > 100 |  |  |  |  | 
CC1=C(C)SC(=C2Sc3nc(O)[nH]c(=O)c3S2)S1 |  | > 100 µM | > 100 µM | 59.4 µM | > 100 µM | > 100 µM | > 100 µM | > 100 µM | > 100 µM |  | > 100 µM |  |  |  |  |  | 

— PubChem BioAssay (NCI)
